According to ChEMBL document CHEMBL5120863, “Sophorolipids: Anti-cancer activities and mechanisms” (Bioorg Med Chem, 2022):
≈ marks a conversion by molar mass, not a printed value.

What was measured:
HPAC = experiment: Cytotoxicity against human HPAC cells assessed as reduction in LDH release at 100 ug/ml measured after 12 hrs by CytoTox96 nonradioactive assay; type: functional; set-up: scale not given: the % may be the effect or the level left; settings: dose 100 µg/ml
MCF7 [1] = experiment: Cytotoxicity against human MCF7 cells assessed as cell growth inhibition measured after 48 hrs by MTT assay; type: functional, cell-based; settings: MCF7, 48 h
HeLa [2] = experiment: Cytotoxicity against human HeLa cells assessed as cell growth inhibition measured after 48 hrs by MTT assay; type: functional, cell-based
HCT-116 = experiment: Cytotoxicity against human HCT-116 cells assessed as cell growth inhibition measured after 48 hrs by MTT assay; type: functional, cell-based; settings: HCT-116, 48 h
A549 [3] = experiment: Cytotoxicity against human A549 cells assessed as cell growth inhibition measured after 48 hrs by MTT assay; type: functional, cell-based; settings: A549, 48 h
PANC-1 [4] = experiment: Cytotoxicity against human PANC-1 cells assessed as cell growth inhibition measured after 48 hrs by MTT assay; type: functional, cell-based; settings: PANC-1, 48 h
[5] = Cytotoxicity against human HUVEC cells assessed as cell growth inhibition measured after 48 hrs by MTT assay; type: toxicity, cell-based
[6] = Cytotoxicity against human L929 cells assessed as cell growth inhibition measured after 48 hrs by MTT assay; type: toxicity, cell-based; settings: mouse
PANC-1 [7] = experiment: Cytotoxicity against human PANC-1 cells assessed as cell growth inhibition measured after 72 hrs by MTT assay; type: functional, cell-based; settings: PANC-1, 72 h
A-431 = experiment: Cytotoxicity against human A-431 cells assessed as cell growth inhibition measured after 48 hrs by MTT assay; type: functional, cell-based; settings: A-431, 48 h
Jurkat [8] = experiment: Cytotoxicity against human Jurkat cells assessed as reduction in cell viability at 25 ug/ml measured after 24 hrs; type: functional; settings: dose 25 µg/ml
HeLa [9] = experiment: Cytotoxicity against human HeLa cells assessed as cell growth inhibition measured after 24 hrs by MTT assay; type: functional, cell-based
ECa-109 cell line = experiment: Cytotoxicity against human Eca-109 cells assessed as cell growth inhibition measured after 24 hrs by MTT assay; type: functional, cell-based; settings: ECa-109, 24 h
KYSE-450 = experiment: Cytotoxicity against human KYSE-450 cells assessed as cell growth inhibition measured after 24 hrs by MTT assay; type: functional, cell-based; settings: KYSE-450, 24 h
A549 [10] = experiment: Cytotoxicity against human A549 cells assessed as cell growth inhibition measured after 48 hrs; type: functional, cell-based; settings: A549, 48 h
MDA-MB-231 [11] = experiment: Cytotoxicity against human MDA-MB-231 cells assessed as cell growth inhibition measured after 24 hrs by crystal violet staining based assay; type: functional; settings: MDA-MB-231, 24 h
[12] = Antitumor activity against human HeLa cells xenografted in BALB/c mouse assessed as reduction in tumor weight at 5 mg/kg, IG administered once daily for 12 days measured after 14 days; type: functional; set-up: scale not given: the % may be the effect or the level left; settings: time 12 day
[13] = Antitumor activity against human HeLa cells xenografted in BALB/c mouse assessed as reduction in tumor weight at 50 mg/kg, IG administered once daily for 12 days measured after 14 days; type: functional; set-up: scale not given: the % may be the effect or the level left; settings: time 12 day
[14] = Antitumor activity against human HeLa cells xenografted in BALB/c mouse assessed as reduction in tumor weight at 500 mg/kg, IG administered once daily for 12 days measured after 14 days; type: functional; set-up: scale not given: the % may be the effect or the level left; settings: time 12 day
HL-60 = experiment: Cytotoxicity against human HL-60 cells assessed as cell growth inhibition measured after 48 hrs; type: functional, cell-based; settings: HL-60, 48 h
K562 = experiment: Cytotoxicity against human K562 cells assessed as cell growth inhibition measured after 48 hrs; type: functional, cell-based; settings: K562, 48 h
[15] = Cytotoxicity against human CCD-841CoN cells assessed as cell growth inhibition measured after 24 hrs by MTT assay; type: toxicity, cell-based
THP-1 [16] = experiment: Cytotoxicity against human THP-1 cells assessed as cell growth inhibition measured after 24 hrs by MTT assay; type: functional, cell-based; settings: THP-1, 24 h
THP-1 [17] = experiment: Cytotoxicity against human THP-1 cells assessed as cell growth inhibition measured after 48 hrs by MTT assay; type: functional, cell-based; settings: THP-1, 48 h
THP-1 [18] = experiment: Cytotoxicity against human THP-1 cells assessed as cell growth inhibition measured after 72 hrs by MTT assay; type: functional, cell-based; settings: THP-1, 72 h
[19] = Cytotoxicity against human HEK293 cells assessed as cell growth inhibition measured after 24 hrs by MTT assay; type: toxicity, cell-based
[20] = Cytotoxicity against human HEK293 cells assessed as cell growth inhibition measured after 48 hrs by MTT assay; type: toxicity, cell-based
[21] = Cytotoxicity against human HEK293 cells assessed as cell growth inhibition measured after 72 hrs by MTT assay; type: toxicity, cell-based
LN-229 = experiment: Cytotoxicity against human LN-229 cells assessed as cell growth inhibition measured after 48 hrs; type: functional, cell-based; settings: LN-229, 48 h
MDA-MB-231 [22] = experiment: Cytotoxicity against human MDA-MB-231 cells assessed as reduction in cell viability at 3.68 ug/ml measured after 24 hrs by MTT assay relative to control; type: functional; settings: dose 3.68 µg/ml
MDA-MB-231 [23] = experiment: Cytotoxicity against human MDA-MB-231 cells assessed as reduction in cell viability at 3.68 ug/ml measured after 48 hrs by MTT assay relative to control; type: functional; settings: dose 3.68 µg/ml
MCF7 [24] = experiment: Cytotoxicity against human MCF7 cells assessed as reduction in cell viability at 14.7 ug/ml measured after 24 hrs by MTT assay relative to control; type: functional; settings: dose 14.7 µg/ml
MCF7 [25] = experiment: Cytotoxicity against human MCF7 cells assessed as reduction in cell viability at 14.7 ug/ml measured after 48 hrs by MTT assay relative to control; type: functional; settings: dose 14.7 µg/ml
HT-29 = experiment: Cytotoxicity against human HT-29 cells assessed as cell growth inhibition; type: functional, cell-based
LS180 = experiment: Cytotoxicity against human LS180 cells assessed as cell growth inhibition; type: functional, cell-based
Caco-2 = experiment: Cytotoxicity against human Caco2 cells assessed as cell growth inhibition measured after 24 by MTT assay; type: functional, cell-based
Jurkat [26] = experiment: Cytotoxicity against human Jurkat cells assessed as cell growth inhibition measured after 45 hrs; type: functional, cell-based
Jurkat [27] = experiment: Cytotoxicity against human Jurkat cells assessed as cell growth inhibition measured after 24 hrs; type: functional, cell-based

COC(=O)CCCCCCC/C=C\CCCCCCC(C)O[C@@H]1O[C@H](CO)[C@@H](O)[C@H](O)[C@H]1O[C@@H]1O[C@H](CO)[C@@H](O)[C@H](O)[C@H]1O (stereo partly specified)
Activity (HPAC): 58.4%

CCCCCCCCCCCCCCCCO[C@@H]1O[C@H](COC(C)=O)[C@@H](O)[C@H](O)[C@H]1O[C@@H]1O[C@H](CO)[C@@H](O)[C@H](O)[C@H]1O
IC50 (MCF7 [1]): 37.7 µg/mL (≈ 61.9 µM)
IC50 (HeLa [2]): 14.1 µg/mL (≈ 23.2 µM)
IC50 (HCT-116): 23.2 µg/mL (≈ 38.1 µM)
IC50 (A549 [3]): 15 µg/mL
IC50 (PANC-1 [4]): 116 µg/mL (≈ 191 µM)
IC50 at 48 h [5]: > 320 µg/mL
IC50 at 48 h [6]: > 320 µg/mL
IC50 (PANC-1 [7]): > 100 µg/mL
IC50 (A-431): 14.9 µg/mL (≈ 24.6 µM)

CCOC(=O)CCCCCCC/C=C\CCCCCCC(C)O[C@@H]1O[C@H](CO)[C@@H](O)[C@H](O)[C@H]1O[C@@H]1O[C@H](CO)[C@@H](O)[C@H](O)[C@H]1O (stereo partly specified)
Activity (Jurkat [8]): 0%
Activity (HPAC): 23.6%

CCOC(=O)CCCCCCC/C=C\CCCCCCC(C)O[C@@H]1O[C@H](COC(C)=O)[C@@H](O)[C@H](O)[C@H]1O[C@@H]1O[C@H](CO)[C@@H](O)[C@H](O)[C@H]1O (stereo partly specified)
Activity (HPAC): 27.4%

CC(=O)OC[C@H]1O[C@H]2OC(C)CCC/C=C/C/C=C\CCCCCCCC(=O)O[C@H]3[C@H](O)[C@@H](O)[C@H](O[C@@H]2[C@@H](O)[C@@H]1O)O[C@@H]3COC(C)=O (stereo partly specified)
IC50 (HeLa [9]): 476 µg/mL (≈ 694 µM)
IC50 (ECa-109 cell line): 15 µg/mL (≈ 21.8 µM)
IC50 (KYSE-450): 35 µg/mL (≈ 51 µM)
IC50 (A549 [10]): 22 µg/mL (≈ 32 µM)

CCCCOC(=O)CCCCCCC/C=C\CCCCCCC(C)O[C@@H]1O[C@H](COC(C)=O)[C@@H](O)[C@H](O)[C@H]1O[C@@H]1O[C@H](COC(C)=O)[C@@H](O)[C@H](O)[C@H]1O (stereo partly specified)
Activity (Jurkat [8]): 99%

COC(=O)CCCCCCC/C=C\CCCCCCC(C)O[C@@H]1O[C@H](COC(C)=O)[C@@H](O)[C@H](O)[C@H]1O[C@@H]1O[C@H](COC(C)=O)[C@@H](O)[C@H](O)[C@H]1O (stereo partly specified)
Activity (HPAC): 25.5%

CC(=O)OC[C@H]1O[C@H]2O[C@H]3[C@H](OC(C)CCCCCC/C=C\CCCCCCCC(=O)O[C@H]1[C@H](O)[C@H]2O)O[C@H](CO)[C@@H](O)[C@@H]3O (stereo partly specified)
IC50 (MDA-MB-231 [11]): 15 µM
Activity [12]: 29.9%
Activity [13]: 41.24%
Activity [14]: 52.06%

CC(=O)OC[C@H]1O[C@H]2OC(C)/C=C/C/C=C/C/C=C\CCCCCCCC(=O)O[C@H]3[C@H](O)[C@@H](O)[C@H](O[C@@H]2[C@@H](O)[C@@H]1O)O[C@@H]3COC(C)=O (stereo partly specified)
IC50 (MDA-MB-231 [11]): 30 µM
IC50 (HeLa [9]): 51.5 µg/mL (≈ 75.2 µM)
IC50 (HL-60): 5 µg/mL (≈ 7.3 µM)

CCCCCCCCCCCCCCCCO[C@@H]1O[C@H](CO)[C@@H](O)[C@H](O)[C@H]1O[C@@H]1O[C@H](CO)[C@@H](O)[C@H](O)[C@H]1O
IC50 (MCF7 [1]): 65.7 µg/mL (≈ 116 µM)
IC50 (HeLa [2]): 16.3 µg/mL (≈ 28.8 µM)
IC50 (HCT-116): 62.8 µg/mL (≈ 111 µM)
IC50 (A549 [3]): 236 µg/mL
IC50 (PANC-1 [4]): 113 µg/mL (≈ 199 µM)
IC50 at 48 h [5]: > 320 µg/mL
IC50 at 48 h [6]: > 320 µg/mL
IC50 (PANC-1 [7]): > 100 µg/mL
IC50 (A-431): 236 µg/mL (≈ 417 µM)

CC(=O)OC[C@H]1O[C@H]2OC(C)CCCCCCCCCCCCCCCC(=O)O[C@H]3[C@H](O)[C@@H](O)[C@H](O[C@@H]2[C@@H](O)[C@@H]1O)O[C@@H]3COC(C)=O (stereo partly specified)
IC50 (MDA-MB-231 [11]): 15 µM
IC50 (HeLa [9]): 30.2 µg/mL (≈ 43.7 µM)

CCCCOC(=O)CCCCCCC/C=C\CCCCCCC(C)O[C@@H]1O[C@H](CO)[C@@H](O)[C@H](O)[C@H]1O[C@@H]1O[C@H](CO)[C@@H](O)[C@H](O)[C@H]1O (stereo partly specified)
Activity (Jurkat [8]): 0%

CC(=O)OC[C@H]1O[C@H]2OC(C)/C=C/C/C=C/C/C=C\C/C=C/CCCCC(=O)O[C@H]3[C@H](O)[C@@H](O)[C@H](O[C@@H]2[C@@H](O)[C@@H]1O)O[C@@H]3COC(C)=O (stereo partly specified)
IC50 (K562): 40 µg/mL (≈ 58.6 µM)

COc1cccc2c1C(=O)c1c(O)c3c(c(O)c1C2=O)C[C@@](O)(C(=O)CO)C[C@@H]3O[C@H]1C[C@H](N)[C@H](O)[C@H](C)O1 [DOXORUBICIN]
IC50 at 24 h [15]: 1.5 µg/mL (≈ 2.76 µM)
IC50 (HeLa [9]): 7.4 µg/mL (≈ 13.6 µM)
IC50 (HeLa [2]): 13 µg/mL (≈ 23.9 µM)
IC50 (THP-1 [16]): 15.7 µg/mL (≈ 28.9 µM)
IC50 (THP-1 [17]): 6.5 µg/mL (≈ 12 µM)
IC50 (THP-1 [18]): 3 µg/mL (≈ 5.52 µM)
IC50 (A549 [3]): 9.5 µM
IC50 at 24 h [19]: 16.7 µg/mL (≈ 30.7 µM)
IC50 at 48 h [20]: 6.1 µg/mL (≈ 11.2 µM)
IC50 at 72 h [21]: 1 µg/mL (≈ 1.84 µM)
IC50 (LN-229): 2 µg/mL (≈ 3.68 µM)
Activity (MDA-MB-231 [22]): 55%
Activity (MDA-MB-231 [23]): 45%
Activity (MCF7 [24]): 45%
Activity (MCF7 [25]): 40%
IC50 (HT-29): 1.6 µg/mL (≈ 2.94 µM)
IC50 (LS180): 0.7 µg/mL (≈ 1.29 µM)
IC50 (Caco-2): 64.2 µg/mL (≈ 118 µM)
IC50 (Jurkat [26]): 0.3 µM
IC50 (Jurkat [27]): 1 µM

CC(CCCCCC/C=C\CCCCCCCC(=O)O)O[C@@H]1O[C@H](CO)[C@@H](O)[C@H](O)[C@H]1O[C@@H]1O[C@H](CO)[C@@H](O)[C@H](O)[C@H]1O (stereo partly specified)
IC50 (MDA-MB-231 [11]): 80 µM

CCOC(=O)CCCCCCC/C=C\CCCCCCC(C)O[C@@H]1O[C@H](COC(C)=O)[C@@H](O)[C@H](O)[C@H]1O[C@@H]1O[C@H](COC(C)=O)[C@@H](O)[C@H](O)[C@H]1O (stereo partly specified)
Activity (Jurkat [8]): 90%
